The values that follow come from patent EP4796538A1, “NOVEL QUINOXALINE COMPOUNDS, MANUFACTURING METHOD THEREOF, AND USES THEREOF” (Gachon University of Industry-Academic Cooperation …, priority 2023, dated 2025).

The IC50 is the concentration that inhibits the measured activity by half.

The target of one assay is T1, RET-CCDC6 (PTC1) (Homo sapiens, UniProt P07949).
T1 construct: purchased Reaction Biology Corp
Put plainly: Kinase panel inhibition, radiolabeled [γ-33P] ATP (Reaction Biology Corp). It is filed as biochemical. The note with it: compound at 10 uM, ATP 1 µM.

The subject of another assay is A-549. As to the kind of experiment: Cell proliferation inhibition, Cell Counting Kit-8, non-small cell lung cancer cell line. It is filed as cell-based. The note with it: A-549 cell line; 72 hours incubation; test concentration not given. On the technique in general: Formazan colour is commonly taken as a measure of viable cells.
The next assay concerns the target T2, RET (G810S/M918T) (Homo sapiens, UniProt P07949, G810S/M918T).
T2 construct: purchased Reaction Biology Corp
Put plainly: Kinase panel inhibition, radiolabeled [γ-33P] ATP (Reaction Biology Corp). It is filed as biochemical. The note with it: ATP 1 µM; for remaining activity at 10 µM: compound at 10 uM; for remaining activity at 30 µM: compound at 30uM.

In another assay the target is T3, RET(G810R) (Homo sapiens, UniProt P07949, G810R).
T3 construct: purchased Reaction Biology Corp
Described as above. It is filed as biochemical. The following applies: ATP 10 µM, read-out: % Enzyme Activity (relative to DMSO controls) G810R; for remaining activity at 1 µM: compound at 1 uM.

For a further assay, the target named is T4, RET(V804M) (Homo sapiens, UniProt P07949, V804M).
T4 construct: purchased Reaction Biology Corp
Described as above. It is filed as biochemical. The following applies: compound at 1 uM; ATP 10 µM; read-out: % Enzyme Activity (relative to DMSO controls) V804M.

The subject of a further assay is BaF3 KIF5B-RET (G810R). Put plainly: Cell proliferation inhibition, Cell Counting Kit-8, Ba/F3 cell line. In kind it is cell-based, rodent. The note with it: Mus musculus, 72 hours incubation, read-out: Cell Viability of BaF3 Cell lines (IC50 in uM) KIF5B-RET (G810R).
A further assay addresses T5, RET (Homo sapiens, UniProt P07949).
T5 construct: purchased Reaction Biology Corp
Put plainly: Kinase panel inhibition, radiolabeled [γ-33P] ATP (Reaction Biology Corp). It is filed as biochemical. The note with it: compound at 1 uM; ATP 10 µM; read-out: % Enzyme Activity (relative to DMSO controls) RET.

Setting [1] is: Data 1, read-out: % Enzyme Activity (relative to DMSO controls) RET-CCDC6 (PTC1) Data 1.
[2] abbreviates: Data 2, read-out: % Enzyme Activity (relative to DMSO controls) RET-CCDC6 (PTC1) Data 2.
[3] abbreviates: Data 1, read-out: % Enzyme Activity (relative to DMSO controls) RET (G810S/M918T) Data 1.
Where [4] appears, read: Data 2, read-out: % Enzyme Activity (relative to DMSO controls) RET (G810S/M918T) Data 2.

Where two headings read alike, the source gives them in different places.

T1 sequence (P07949 whole entry, looked up): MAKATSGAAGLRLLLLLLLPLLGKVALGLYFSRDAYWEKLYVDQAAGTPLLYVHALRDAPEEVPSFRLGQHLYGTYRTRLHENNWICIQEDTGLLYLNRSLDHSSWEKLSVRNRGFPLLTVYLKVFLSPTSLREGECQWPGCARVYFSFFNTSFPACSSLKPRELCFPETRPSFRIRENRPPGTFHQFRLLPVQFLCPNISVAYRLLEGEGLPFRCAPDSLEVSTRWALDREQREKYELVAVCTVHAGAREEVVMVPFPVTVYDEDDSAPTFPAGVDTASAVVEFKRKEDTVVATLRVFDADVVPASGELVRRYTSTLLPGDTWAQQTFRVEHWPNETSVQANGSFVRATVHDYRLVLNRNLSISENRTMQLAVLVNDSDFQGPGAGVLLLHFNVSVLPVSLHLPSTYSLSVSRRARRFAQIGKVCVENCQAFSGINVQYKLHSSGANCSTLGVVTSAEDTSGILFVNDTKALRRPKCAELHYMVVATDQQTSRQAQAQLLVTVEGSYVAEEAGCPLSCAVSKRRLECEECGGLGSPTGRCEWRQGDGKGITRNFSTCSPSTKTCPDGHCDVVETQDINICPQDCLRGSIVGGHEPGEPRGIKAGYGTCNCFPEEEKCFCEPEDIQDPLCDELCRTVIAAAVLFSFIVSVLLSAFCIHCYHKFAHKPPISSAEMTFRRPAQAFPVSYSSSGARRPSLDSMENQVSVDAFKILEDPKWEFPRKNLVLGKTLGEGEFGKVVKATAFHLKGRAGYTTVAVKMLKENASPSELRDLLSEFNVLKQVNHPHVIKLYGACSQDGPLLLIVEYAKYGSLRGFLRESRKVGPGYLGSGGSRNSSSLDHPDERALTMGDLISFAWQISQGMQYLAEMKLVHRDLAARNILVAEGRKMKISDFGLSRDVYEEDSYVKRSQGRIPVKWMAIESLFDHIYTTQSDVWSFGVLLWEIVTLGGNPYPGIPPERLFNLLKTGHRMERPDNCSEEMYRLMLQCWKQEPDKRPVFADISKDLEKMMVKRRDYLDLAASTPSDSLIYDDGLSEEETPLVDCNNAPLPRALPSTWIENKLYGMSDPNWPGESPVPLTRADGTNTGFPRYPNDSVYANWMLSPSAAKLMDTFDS
T5 sequence (P07949 29-1114): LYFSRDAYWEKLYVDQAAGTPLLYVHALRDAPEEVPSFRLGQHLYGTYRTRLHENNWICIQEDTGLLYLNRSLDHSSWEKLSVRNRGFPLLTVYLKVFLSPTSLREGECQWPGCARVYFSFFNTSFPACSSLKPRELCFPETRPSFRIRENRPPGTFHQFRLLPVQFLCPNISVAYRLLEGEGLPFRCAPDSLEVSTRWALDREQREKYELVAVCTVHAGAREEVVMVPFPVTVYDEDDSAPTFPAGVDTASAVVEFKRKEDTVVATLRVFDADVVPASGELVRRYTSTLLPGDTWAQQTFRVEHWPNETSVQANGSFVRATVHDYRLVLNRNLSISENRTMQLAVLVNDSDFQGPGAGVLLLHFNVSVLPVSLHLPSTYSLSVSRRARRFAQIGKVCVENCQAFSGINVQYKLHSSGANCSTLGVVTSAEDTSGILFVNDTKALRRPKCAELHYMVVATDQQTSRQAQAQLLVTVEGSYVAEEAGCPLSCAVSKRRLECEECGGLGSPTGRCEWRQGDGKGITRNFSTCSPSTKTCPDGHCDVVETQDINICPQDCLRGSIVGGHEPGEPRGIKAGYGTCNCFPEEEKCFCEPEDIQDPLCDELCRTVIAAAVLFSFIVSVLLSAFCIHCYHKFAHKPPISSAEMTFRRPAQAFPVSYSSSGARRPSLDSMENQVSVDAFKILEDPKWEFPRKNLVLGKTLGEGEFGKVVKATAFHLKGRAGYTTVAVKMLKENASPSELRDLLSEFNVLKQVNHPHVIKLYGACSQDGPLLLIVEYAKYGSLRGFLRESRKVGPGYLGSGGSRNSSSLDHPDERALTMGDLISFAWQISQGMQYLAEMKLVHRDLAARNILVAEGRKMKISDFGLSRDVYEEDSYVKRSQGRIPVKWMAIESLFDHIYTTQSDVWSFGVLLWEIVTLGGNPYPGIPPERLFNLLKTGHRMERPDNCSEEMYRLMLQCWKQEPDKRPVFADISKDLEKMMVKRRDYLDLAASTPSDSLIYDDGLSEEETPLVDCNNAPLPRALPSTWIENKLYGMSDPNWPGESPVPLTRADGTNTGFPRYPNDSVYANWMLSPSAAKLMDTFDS
T3 sequence (P07949 29-1114 G810R): as the sequence (P07949 29-1114) above, with G782R counted along it
T4 sequence (P07949 29-1114 V804M): as the sequence (P07949 29-1114) above, with V776M counted along it
T2 sequence (P07949 29-1114 G810S/M918T): as the sequence (P07949 29-1114) above, with G782S, M890T counted along it

As for `CCCCNc1cc(-c2ccc(N3CC[C@H](NC(=O)c4ccccc4F)C3)nc2)c2nccnc2c1` [Example 15, (S)-N-(1-(5-(7-(butylamino)quinoxalin-5-yl)pyridin-2-yl)pyrrolidin-3-yl)-2-fluorobenzamide], the remaining activity at 10 µM at RET-CCDC6 (PTC1) (setting [1]) is 1.08%; on RET-CCDC6 (PTC1) (setting [2]), 1.1%; at RET (G810S/M918T) (setting [3]) it was -0.06%; at RET (G810S/M918T) (setting [4]), -0.2%. Further, the “Cell Proliferation (% of control)” value in the assay with A-549 came out at 51.55%.

In the case of `CC(C)CNc1cc(-c2ccc(N3CC[C@H](NC(=O)c4ccccc4F)C3)nc2)c2nccnc2c1` [Example 16, (S)-2-fluoro-N-(1-(5-(7-(isobutylamino)quinoxalin-5-yl)pyridin-2-yl)pyrrolidin-3-yl)benzamide], the remaining activity at 10 µM came to 1.21% on RET-CCDC6 (PTC1) (setting [1]), 1.51% on RET-CCDC6 (PTC1) (setting [2]), 3.39% at RET (G810S/M918T) (setting [3]) and 3.22% on RET (G810S/M918T) (setting [4]). Besides, the “Cell Proliferation (% of control)” value with A-549 came out at 65.29%.

For the molecule `O=C(Nc1cc(-c2ccc(N3CC[C@H](NC(=O)c4ccccc4F)C3)nc2)c2nccnc2c1)c1ccco1` [Example 17, (S)-N-(8-(6-(3-(2-fluorobenzamido)pyrrolidin-1-yl)pyridin-3-yl)quinoxalin-6-yl)furan-2-carboxamide], the remaining activity at 10 µM came out at 1.15% on RET-CCDC6 (PTC1) (setting [1]), 1.33% at RET-CCDC6 (PTC1) (setting [2]), 11.9% at RET (G810S/M918T) (setting [3]) and 11.9% on RET (G810S/M918T) (setting [4]). Besides, the “Cell Proliferation (% of control)” value in the assay on A-549 was 48.96%.

`O=C(Nc1cc(-c2ccc(N3CC[C@H](NC(=O)c4ccccc4F)C3)nc2)c2nccnc2c1)c1ccccn1` [Example 18, (S)-N-(8-(6-(3-(2-fluorobenzamido)pyrrolidin-1-yl)pyridin-3-yl)quinoxalin-6-yl)picolinamide]: the remaining activity at 10 µM at RET-CCDC6 (PTC1) (setting [1]) came out at 1.9%; at RET-CCDC6 (PTC1) (setting [2]), 2.31%; at RET (G810S/M918T) (setting [3]) it was 24.7%; on RET (G810S/M918T) (setting [4]), 25.5%. Besides, the “Cell Proliferation (% of control)” value in the assay on A-549 is on record as 35.32%.

As for `Nc1cc(-c2ccc(N3CCOCC3)nc2)c2nccnc2c1` [Example 19, 8-(6-morpholinopyridin-3-yl)quinoxalin-6-amine], the remaining activity at 10 µM at RET-CCDC6 (PTC1) (setting [1]) came out at 5.69%; at RET-CCDC6 (PTC1) (setting [2]), 6.45%; at RET (G810S/M918T) (setting [3]), 27.3%; on RET (G810S/M918T) (setting [4]) it was 26.3%. For the same molecule, in the assay with A-549, the “Cell Proliferation (% of control)” value is 71.46%.

Take `CN1CCN(c2ccc(-c3cc(N)cc4nccnc34)cn2)CC1` [Example 20, 8-(6-(4-methylpiperazin-1-yl)pyridin-3-yl)quinoxalin-6-amine]: the remaining activity at 10 µM at RET-CCDC6 (PTC1) (setting [1]) came to 12.9%; at RET-CCDC6 (PTC1) (setting [2]) it was 15.3%; at RET (G810S/M918T) (setting [3]), 48.1%; on RET (G810S/M918T) (setting [4]), 45%. Further, in the assay on A-549, the “Cell Proliferation (% of control)” value stood at 81.61%.

In the case of `CCN1CCN(c2ccc(-c3cc(N)cc4nccnc34)cn2)CC1` [Example 21, 8-(6-(4-ethylpiperazin-1-yl)pyridin-3-yl)quinoxalin-6-amine], the remaining activity at 10 µM on RET-CCDC6 (PTC1) (setting [1]) was 26%; on RET-CCDC6 (PTC1) (setting [2]), 28%; on RET (G810S/M918T) (setting [3]), 66.7%; on RET (G810S/M918T) (setting [4]), 63.3%. In the assay with A-549, the “Cell Proliferation (% of control)” value was determined as 64.90%.

Take `CCS(=O)(=O)N1CCN(c2ccc(-c3cc(N)cc4nccnc34)cn2)CC1` [Example 22, 8-(6-(4-(ethylsulfonyl)piperazin-1-yl)pyridin-3-yl)quinoxalin-6-amine]: the remaining activity at 10 µM on RET-CCDC6 (PTC1) (setting [1]) was determined as 2.9%; at RET-CCDC6 (PTC1) (setting [2]) it was 3.03%; at RET (G810S/M918T) (setting [3]), 15.7%; on RET (G810S/M918T) (setting [4]) it was 15.1%. In addition, the “Cell Proliferation (% of control)” value in the assay on A-549 is listed as 68.42%.

`Nc1cc(-c2ccc(N3CCN(c4ccccn4)CC3)nc2)c2nccnc2c1` [Example 23, 8-(6-(4-(pyridin-2-yl)piperazin-1-yl)pyridin-3-yl)quinoxalin-6-amine]: the remaining activity at 10 µM on RET-CCDC6 (PTC1) (setting [1]) turned out to be 1.92%; at RET-CCDC6 (PTC1) (setting [2]) it was 2.29%; on RET (G810S/M918T) (setting [3]), 9.23%; at RET (G810S/M918T) (setting [4]) it was 9.45%. In addition, the “Cell Proliferation (% of control)” value in the assay with A-549 is 78.36%.

For `Nc1cc(-c2ccc(N3CCN(Cc4ccc(Br)cc4)CC3)nc2)c2nccnc2c1` [Example 24, 8-(6-(4-(4-bromobenzyl)piperazin-1-yl)pyridin-3-yl)quinoxalin-6-amine], the remaining activity at 10 µM is 1.51% at RET-CCDC6 (PTC1) (setting [1]), 1.27% on RET-CCDC6 (PTC1) (setting [2]), 2.24% at RET (G810S/M918T) (setting [3]) and 2.38% on RET (G810S/M918T) (setting [4]). The “Cell Proliferation (% of control)” value in the assay on A-549 came to 15.35%.

As to `Nc1cc(-c2ccc(N3CCC(N4CCOCC4)CC3)nc2)c2nccnc2c1` [Example 25, 8-(6-(4-morpholinopiperidin-1-yl)pyridin-3-yl)quinoxalin-6-amine], the remaining activity at 10 µM at RET-CCDC6 (PTC1) (setting [1]) is 18.3%; at RET-CCDC6 (PTC1) (setting [2]), 20.4%; on RET (G810S/M918T) (setting [3]), 46.8%; at RET (G810S/M918T) (setting [4]), 45.2%. The “Cell Proliferation (% of control)” value with A-549 amounted to 75.52%.

`CCNc1cc(-c2ccc(N3CCN(Cc4ccc(Br)cc4)CC3)nc2)c2nccnc2c1` [Example 26, 8-(6-(4-(4-bromobenzyl)piperazin-1-yl)pyridin-3-yl)-N-ethylquinoxalin-6-amine]: the remaining activity at 10 µM at RET-CCDC6 (PTC1) (setting [1]) is 0.94%; on RET-CCDC6 (PTC1) (setting [2]), 1.32%; on RET (G810S/M918T) (setting [3]), 1.23%; at RET (G810S/M918T) (setting [4]), 1.3%. The “Cell Proliferation (% of control)” value in the assay with A-549 was found to be 79.51%.

As for `Nc1cc(-c2cnc(N3CC(Oc4cccc(F)c4)C3)nc2)c2nccnc2c1` [Example 29, 8-(2-(3-(3-fluorophenoxy)azetidin-1-yl)pyrimidin-5-yl)quinoxalin-6-amine], the remaining activity at 0.1 µM on RET(G810R) (compound at 0.1 uM) stood at 76.3%. Besides, the remaining activity at 10 µM turned out to be 1.22% on RET-CCDC6 (PTC1) (setting [1]), 1.07% at RET-CCDC6 (PTC1) (setting [2]), 0.28% on RET (G810S/M918T) (setting [3]) and 0.11% at RET (G810S/M918T) (setting [4]). For the same molecule, the “Cell Proliferation (% of control)” value in the assay on A-549 was 12.87%.

With `Nc1cc(-c2cnc(N3CC[C@H](NC(=O)c4ccccc4F)C3)nc2)c2nccnc2c1` [Example 30, (S)-N-(1-(5-(7-aminoquinoxalin-5-yl)pyrimidin-2-yl)pyrrolidin-3-yl)-2-fluorobenzamide], the remaining activity at 10 µM on RET-CCDC6 (PTC1) (setting [1]) was 1.19%; at RET-CCDC6 (PTC1) (setting [2]), 1.2%; at RET (G810S/M918T) (setting [3]), 0.97%; at RET (G810S/M918T) (setting [4]), 0.98%. The “Cell Proliferation (% of control)” value in the assay with A-549 came to 42.94%.

For the molecule `CCNc1cc(-c2ccc(F)nc2)c2nccnc2c1` [Intermediate Compound 6, N-ethyl-8-(6-fluoropyridin-3-yl)quinoxalin-6-amine], the results for the remaining activity at 1 µM on RET(G810R), on RET(V804M) and on RET were 97.9%, 59.3% and 57%, respectively. The half-maximal inhibitory concentration (IC50) in the assay with BaF3 KIF5B-RET (G810R) was 4.44 µM. The remaining activity at 30 µM at RET (G810S/M918T) (setting [3]) came to 18.2%; on RET (G810S/M918T) (setting [4]), 17.2%.

Turning to `O=C(Nc1cc(Br)c2nccnc2c1)c1ccco1` [Intermediate Compound 11, N-(8-bromoquinoxalin-6-yl)furan-2-carboxamide], the remaining activity at 1 µM was found to be 97.6% at RET(G810R), 87.1% at RET(V804M) and 93.7% on RET. For the same molecule, the IC50 in the assay on BaF3 KIF5B-RET (G810R) is > 10 µM. Also, the remaining activity at 30 µM was found to be 74.7% on RET (G810S/M918T) (setting [3]) and 73% at RET (G810S/M918T) (setting [4]).

For `O=C(Nc1cc(-c2ccc(F)nc2)c2nccnc2c1)c1ccco1` [Intermediate Compound 13, N-(8-(6-fluoropyridin-3-yl)quinoxalin-6-yl)furan-2-carboxamide], the remaining activity at 1 µM at RET(G810R) was found to be 102%; on RET(V804M), 104%; at RET, 95.7%. Further, the IC50 with BaF3 KIF5B-RET (G810R) was > 10 µM. The remaining activity at 30 µM on RET (G810S/M918T) (setting [3]) worked out at 92.6%; on RET (G810S/M918T) (setting [4]), 89.7%.

Consider `O=[N+]([O-])c1cc(-c2ccc(F)nc2)c2nccnc2c1` [Intermediate Compound 15, 5-(6-fluoropyridin-3-yl)-7-nitroquinoxaline], for which the remaining activity at 1 µM on RET(G810R) was 99.5%; on RET(V804M) it was 94.9%; at RET it was 93.5%. The remaining activity at 30 µM was 97.4% at RET (G810S/M918T) (setting [3]) and 99.4% on RET (G810S/M918T) (setting [4]).

As to `COc1ccc(CN2C3CC2CN(c2ccc(-c4cc(OCC(C)(C)O)cn5ncc(C#N)c45)cn2)C3)cn1` [Selpercatinib, selpercatinib, reference compound], in the assay with BaF3 KIF5B-RET (G810R), the IC50 was 1.41 µM.
